Earlier results, collected in patent US11266615B2, “Pyrimethamine-based pharmaceutical compositions and methods for fabricating thereof” (Harrow IP, LLC, priority 2018, dated 2022).

Conditions: background statement

solubility in water: poor
Structure (SMILES): CCc1nc(N)nc(N)c1-c1ccc(Cl)cc1 [pyrimethamine, 5-(4-chlorophenyl)-6-ethyl-pyrimidine-2,4-diamine]
